Data: PubChem BioAssay (NCI)
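Interpolation was linear, between the two tested concentrations surrounding the appropriate level; five concentrations were tested over 48 hours in 96-well plates. GI50 = concentration required for 50% inhibition of growth. TGI: total growth inhibition.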

Legend:
Experiment in all cases: growth of human tumour cells (NCI), 48 h
[1] = tested on: HCC-2998 colon
[2] = tested on: HOP-92 NSCLC
[3] = tested on: HS 578T breast
[4] = tested on: HT29 colon
[5] = tested on: IGROV1 ovarian
[6] = tested on: MALME-3M melanoma
[7] = tested on: SK-MEL-5 melanoma
[8] = tested on: U251 CNS
[9] = tested on: UACC-257 melanoma
[10] = tested on: UACC-62 melanoma

| Structure (SMILES) | GI50 [1] [µM] | TGI [1] [µM] | GI50 [2] [µM] | TGI [2] [µM] | GI50 [3] [µM] | TGI [3] [µM] | GI50 [4] [µM] | TGI [4] [µM] | GI50 [5] [µM] | TGI [5] [µM] | GI50 [6] [µM] | TGI [6] [µM] | GI50 [7] [µM] | TGI [7] [µM] | GI50 [8] [µM] | TGI [8] [µM] | GI50 [9] [µM] | TGI [9] [µM] | GI50 [10] [µM] | TGI [10] [µM] |
| --- | --- | --- | --- | --- | --- | --- | --- | --- | --- | --- | --- | --- | --- | --- | --- | --- | --- | --- | --- | --- |
| CC(=O)[O][Hg][c]1ccccc1 | 1.64 | 3.11 | 0.299 | 0.92 | 0.289 | 1.67 | 0.626 | 2.46 | 0.295 | 0.934 | 0.506 | 1.62 | 0.472 | 1.82 | 0.453 | 1.75 | 0.908 | 2.18 | 0.587 | 1.91 |
| O=C(OCc1ccc2c(Cl)cc(Cl)c(O)c2n1)c1cc2ccccc2[nH]1 | 1.51 | 3.02 | 0.228 | 0.722 | 1.62 | 4.48 | 0.32 | 1.03 | 0.219 | 0.5 | 1.26 | 2.6 | 1.33 | 2.63 | 1.61 | 3.22 | 0.88 | 3 | 0.478 | 1.7 |
| CCOC(=O)Nc1ccc(-c2nc(-c3cccc(OC)c3)c(-c3ccnc(Br)c3)[nH]2)cc1 | 2.25 | 6.23 | 2.36 | 7.69 | 1.68 | 6.15 | 3.45 | > 100 | 2.69 | 9.03 | 1.98 | 5.73 | 1.83 | 3.43 | 2.44 | > 100 | 2.68 | 7.9 | 1.89 | 4.18 |
| NC(=O)/C=C/NC(=O)/C=N\O |  | > 100 |  | > 100 |  | > 100 |  | > 100 |  | > 100 |  | > 100 |  | > 100 |  | > 100 |  | > 100 |  | > 100 |
| COc1ccc(-c2cc(=O)c3c(O)cc(C)cc3o2)cc1OC |  | > 100 |  | > 100 |  | > 100 |  | > 100 |  | > 100 |  | > 100 |  | > 100 |  | > 100 |  | > 100 |  | > 100 |
| C#Cc1cccc(Nc2nc3ccc([N+](=O)[O-])cc3nc2Nc2cccc(C#C)c2)c1 | 0.341 | 1.27 | 0.191 | 0.704 | 0.322 | 1.72 | 0.229 | 0.562 | 0.354 | 1.3 | 0.235 | 0.614 | 0.181 | 0.349 | 0.18 | 0.482 | 0.207 | 0.602 | 0.302 | 1.2 |
| COc1ccc2c(c1)[n+](=O)c(C(=O)/C=C/c1cc(OC)c(OC)c(OC)c1)c(C)n2[O-] | 42.9 | > 100 | 12.3 | 30.8 | 11.8 | 34.5 | > 100 | > 100 | 20.7 | 42 | 19.1 | 58.7 | 40.4 | > 100 | 9.87 | 22.4 | 34.1 | > 100 | 17.2 | 37.3 |
